The term IC50 denotes the concentration needed to halve the response being measured. What is called solubility is the dissolved amount per volume that the medium holds. Read a high solubility as a readily soluble substance.

Experimental findings from patent US20250197425A1, “2,6,9-TRISUBSTITUTED PURINES” (ASTRAZENECA AB, priority 2022, published 2025) are described below.

≈ marks a conversion by molar mass, not a printed value. Where two headings read alike, the source gives them in different places.

The test system of series [1] is POLR2A Ser2 phosphorylation (CDK9). Description: POLR2A Ser2 phosphorylation imaging assay in MCF-7 cells. It is filed as cell-based. Conditions: Homo sapiens, MCF7, 2 h, read-out: POLR2A Ser2 phosphorylation IC50. The protocol: Compounds were tested to assess their effect on CDK9 activity in a cellular context. […] During the cell cycle, CDK9 is a component of a multiprotein complex that phosphorylates POLR2A Ser2 which results in transcription elongation.
[…] were fixed by addition of 40 μL/well of 8% paraformaldehyde and incubated for 10 minutes at room temperature. The plates were washed three times with 50 μL/well PBS using a Biotek EL406 plate washer and then permeabilized for 10 minutes at room temperature in 0.3% Triton X100 in PBS. After washing as before, the plates were blocked using 30 μL/well of 2% BSA (w/v) in PBS-T for over 30 minutes at room temperature. […] After washing in PBS as before, leaving each well in 40 μL of PBS, the plates were sealed and imaged on a Cell Insight imaging system (Thermo) with a 10× objective and 2 fields of view per well. POLR2A Ser2levels were normalized to controls and the IC50 values of test compounds determined using Genedata Screener software.

Series [2] concerns MCF-7 cells. Description: Cellular proliferation EdU assay, MCF-7. In kind it is cell-based. To be noted: Homo sapiens, MCF7, 48 h, read-out: MCF-7 IC50. How it is done:
(§1) Compounds were tested to assess inhibition of cellular proliferation in the breast cancer cell line MCF-7 and the CCNE1-amplified ovarian cell line OVCAR3.
(§2) MCF-7 and OVCAR3 cells in RPMI supplemented with 10% Fetal bovine serum were seeded into 384-well plates (Greiner, Kremsmunster, Austria; 781091), 30 μL/well, using a WellMate. The MCF7 and OVCAR3 cells were seeded at 800 and 1200 cells/well, respectively. Test compounds were added to the wells using an Echo 555 liquid handler and the plates were placed in incubator maintained at 37° C. and 5% CO2 and incubated for two days. On Day 2, an EdU assay was performed following the manufacturer's protocol (Thermo Fisher, C10351). The cells were read on an Acumen eX3 instrument. The IC50 values of test compounds were determined in Genedata by assessing the ratio of signal intensity at 488 nm to the area of signal at 405 nm.

The subject of series [3] is OVCAR3 cells. Description: Cellular proliferation EdU assay, OVCAR3. Conditions: Homo sapiens, OVCAR-3, 48 h, read-out: OVCAR3 IC50. It is filed as cell-based, human. How it is done: as §1, §2
Series [4] concerns NPM phosphorylation (Thr199, CDK2-cyclin E complex). Description: NPM phosphorylation imaging assay in MCF-7 cells. In kind it is cell-based. To be noted: Homo sapiens, MCF7, 2 hours, 4N DNA cells. The protocol: Compounds were tested to assess the effects of CDK2 inhibition in a cellular context. […] During the cell cycle, the CDK2-cyclin E complex phosphorylates NPM at Thr199 which is a prerequisite step for initiation of centrosome duplication.
The cells were fixed by addition of 40 μL/well of 8% paraformaldehyde and incubated at room temperature for 10 minutes. The plates were washed three times with 50 μL/well PBS using a Biotek EL406 plate washer and then permeabilized for 10 minutes at room temperature in 0.3% Triton X100 in PBS. After washing as before, the plates were blocked using 30 μL/well of 2% BSA (w/v) in PBS-T for at least 30 minutes at room temperature. […] Cells containing 4N DNA were selected using the Hoechst staining. Phospho-NPM levels were normalized to controls and the IC50 values of test compounds determined using Genedata Screener software.

Series [5] is described as follows: Aqueous thermodynamic solubility, shake-flask. It is filed as physicochemical. To be noted: aqueous phosphate buffer, 25 °C, pH 7.4, aqueous buffer, thermodynamic from solid, phosphate buffer 0.1 M, pH 7.4, 24 hours. How it is done: The DMSO was evaporated and the dried compounds were equilibrated in glass vials in aqueous phosphate buffer (0.1 M, pH 7.4) for 24 hours at 25° C. under constant stirring. The portion with the dissolved compound was then separated from the remainder through a double centrifugation with a tip wash in between to ensure that no residues of the dried compound were interfering. The solutions were diluted with purified water before quantification using UPLC/MS/MS.

Series [6] deals with CDK2:CCNE1 (Homo sapiens (Human), UniProt P24941). Description: NanoBRET assay in MCF-7 cells, CDK2. In kind it is cell-based. Conditions: transfected MCF-7 cells, 2 hours, n = 1 or average. The protocol: Compounds were tested in breast cancer cell line MCF-7 to assess inhibition of CDK1, CDK2, and CDK4 activity. […] The next day media were evacuated from the wells using the Bluewasher centrifugal plate washer (Bluecatbio) and 10 μL/well phenol red free OptiMEM was then added using a Multidrop Combi. […] Immediately after compound addition, a Tecan HP300 dispensor was used to dispense the relevant NanoBRET™ tracer to the CDK1 wells (12.5 nl, 400 μM, NanoBRET™ TE Tracer K-9), the CDK2 wells (12.5 nl, 200 μM, NanoBRET™ TE Tracer K-9), and the CDK4 wells (8 nl, 100 μM, NanoBRET™ TE Tracer K-7) and the plates were incubated for 2 hours at 37° C. and 5% CO2. […] The plates were incubated in subdued lighting for 10 minutes and then read on a Pherastar FS plate reader (BMG Technologies) using a NanoBRET™ filter module (460±80 nm/610 nm-LP). The ratio values were normalized to controls and the IC50 values of test compounds determined using Genedata Screener software.
For orientation: BRET reads energy transfer from a luciferase to a nearby fluorophore.

Series [7] has as its target CDK1:CCNB1 (Homo sapiens (Human), UniProt P06493). Description: NanoBRET assay in MCF-7 cells, CDK1. In kind it is cell-based. Conditions: CDK1 IC50, NanoBRET, transfected MCF-7 cells, 2 hours; n = 1 or average. How it is done: (§3) Compounds were tested in breast cancer cell line MCF-7 to assess inhibition of CDK1, CDK2, and CDK4 activity. MCF-7 cells transiently transfected with CDK1:CCNB1, CDK2:CCNE1, or CDK4:CCND1 were harvested at a density of 1E5 cells/mL in complete media, seeded 20 μL/well into 384-well Greiner 784080 plates using a Multidrop Combi, and incubated overnight at 37° C. and 5% CO2. The next day media were evacuated from the wells using the Bluewasher centrifugal plate washer (Bluecatbio) and 10 μL/well phenol red free OptiMEM was then added using a Multidrop Combi. […] Immediately after compound addition, a Tecan HP300 dispensor was used to dispense the relevant NanoBRET™ tracer to the CDK1 wells (12.5 nl, 400 μM, NanoBRET™ TE Tracer K-9), the CDK2 wells (12.5 nl, 200 μM, NanoBRET™ TE Tracer K-9), and the CDK4 wells (8 nl, 100 μM, NanoBRET™ TE Tracer K-7) and the plates were incubated for 2 hours at 37° C. and 5% CO2. The plates were allowed to cool for 10 minutes at room temperature and 5 μL/well of TE Nano-Glo®Substrate/Inhibitor at 2.4 μM and 1:500 respectively (N2162 Promega) was added. The plates were incubated in subdued lighting for 10 minutes and then read on a Pherastar FS plate reader (BMG Technologies) using a NanoBRET™ filter module (460±80 nm/610 nm-LP). The ratio values were normalized to controls and the IC50 values of test compounds determined using Genedata Screener software.

The target in series [8] is CDK4:CCND1 (Homo sapiens (Human), UniProt P11802). Description: NanoBRET assay in MCF-7 cells, CDK4. To be noted: CDK4 IC50, NanoBRET, transfected MCF-7 cells, 2 hours; n = 1 or average. It is filed as cell-based. The protocol:
as §3

Chain of CDK1:CCNB1 (P06493 whole entry): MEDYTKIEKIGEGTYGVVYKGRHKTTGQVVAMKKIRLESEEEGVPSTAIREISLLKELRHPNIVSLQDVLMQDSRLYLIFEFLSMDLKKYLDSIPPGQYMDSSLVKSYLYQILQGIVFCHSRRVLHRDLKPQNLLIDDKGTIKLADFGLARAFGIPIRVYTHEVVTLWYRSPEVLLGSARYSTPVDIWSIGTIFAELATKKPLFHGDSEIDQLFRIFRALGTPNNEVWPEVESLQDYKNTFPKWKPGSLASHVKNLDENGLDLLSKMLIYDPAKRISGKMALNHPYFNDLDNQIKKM
Chain of CDK1:CCNB1 (P14635 whole entry partner): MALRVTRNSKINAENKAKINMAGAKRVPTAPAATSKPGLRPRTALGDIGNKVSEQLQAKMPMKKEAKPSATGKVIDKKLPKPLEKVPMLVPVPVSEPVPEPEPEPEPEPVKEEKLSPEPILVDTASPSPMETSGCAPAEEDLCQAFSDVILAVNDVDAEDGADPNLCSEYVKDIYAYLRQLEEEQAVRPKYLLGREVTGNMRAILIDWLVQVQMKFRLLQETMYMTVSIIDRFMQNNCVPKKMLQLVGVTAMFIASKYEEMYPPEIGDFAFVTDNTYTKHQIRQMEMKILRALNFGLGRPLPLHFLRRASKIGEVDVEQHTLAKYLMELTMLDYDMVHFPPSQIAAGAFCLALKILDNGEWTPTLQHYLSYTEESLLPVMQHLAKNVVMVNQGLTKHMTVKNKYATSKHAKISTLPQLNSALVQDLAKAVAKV
Chain of CDK4:CCND1 (P11802 whole entry): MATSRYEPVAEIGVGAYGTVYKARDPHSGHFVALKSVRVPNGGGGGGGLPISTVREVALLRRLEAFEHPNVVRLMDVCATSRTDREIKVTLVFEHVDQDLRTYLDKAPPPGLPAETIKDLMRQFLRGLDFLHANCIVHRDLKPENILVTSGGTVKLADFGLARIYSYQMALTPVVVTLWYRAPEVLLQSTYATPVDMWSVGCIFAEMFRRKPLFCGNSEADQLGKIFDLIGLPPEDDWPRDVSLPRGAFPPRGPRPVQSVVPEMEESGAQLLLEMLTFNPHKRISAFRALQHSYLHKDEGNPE
Chain of CDK4:CCND1 (P24385 whole entry partner): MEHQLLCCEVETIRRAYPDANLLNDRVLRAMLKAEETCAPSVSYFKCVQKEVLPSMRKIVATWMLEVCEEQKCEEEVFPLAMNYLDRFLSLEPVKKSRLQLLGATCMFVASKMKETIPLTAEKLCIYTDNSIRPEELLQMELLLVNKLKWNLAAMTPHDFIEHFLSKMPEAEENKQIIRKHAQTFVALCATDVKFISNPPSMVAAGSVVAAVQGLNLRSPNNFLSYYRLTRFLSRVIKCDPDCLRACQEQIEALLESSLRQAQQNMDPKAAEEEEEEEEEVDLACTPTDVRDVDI

Turning to `CCNS(=O)(=O)N1CC[C@H](Nc2nc(N[C@H](CC)[C@@H](C)O)nc3c2ncn3CC)C1` (mixture of isomers) [Example 13, (S)—N-ethyl-3-((9-ethyl-2-(((2R,3R)-2-hydroxypentan-3-yl)amino)-9H-purin-6-yl)amino)pyrrolidine-1-sulfonamide], the IC50 in series [1] was more than 30000 nM; in series [2] (EdU assay, two days), 490 nM; in series [3] (EdU assay, two days), 202 nM.
On to `CC[C@H](Nc1nc(N[C@H]2CCN(S(=O)(=O)NCC(F)(F)F)C2)c2ncn(CC)c2n1)[C@@H](C)O` [Example 4, (S)-3-((9-ethyl-2-(((2R,3S)-2-hydroxypentan-3-yl)amino)-9H-purin-6-yl)amino)-N-(2,2,2-trifluoroethyl)pyrrolidine-1-sulfonamide], for which the IC50 was 164 nM in series [4]; more than 30000 nM in series [1] (MCF-7 cells, 2 hours); 685 nM in series [2] (EdU assay, two days); 294 nM in series [3] (EdU assay, two days). For the same compound, the solubility at 24 h in series [5] was found to be 57 µM (≈ 28.2 µg/mL).
As to `CC[C@H](Nc1nc(N[C@H]2CCN(S(=O)(=O)NCC(F)F)C2)c2ncn(CC)c2n1)[C@@H](C)O` [Example 5, (S)—N-(2,2-difluoroethyl)-3-((9-ethyl-2-(((2R,3S)-2-hydroxypentan-3-yl)amino)-9H-purin-6-yl)amino)pyrrolidine-1-sulfonamide], the IC50 in series [1] (MCF-7 cells, 2 hours) is more than 30000 nM; in series [2] (EdU assay, two days), 917 nM; in series [3] (EdU assay, two days) it was 154 nM. The solubility at 24 h in series [5] is more than 1000 µM.
With `CCNS(=O)(=O)N1CC[C@H](Nc2nc(N[C@@H](CC)C(C)=O)nc3c2ncn3CC)C1` [Example 7, (S)—N-ethyl-3-((9-ethyl-2-(((S)-2-oxopentan-3-yl)amino)-9H-purin-6-yl)amino)pyrrolidine-1-sulfonamide], the IC50 in series [6] is 13 nM; in series [7], 591 nM; in series [8], 19100 nM; in series [1] it was 24200 nM; in series [2] it was 486 nM; in series [3], 203 nM. The solubility at 24 h in series [5] came to 220 µM (≈ 96.5 µg/mL).
As for `CCNS(=O)(=O)N1CC[C@H](Nc2nc(N[C@@H](CC)[C@H](C)O)nc3c2ncn3CC)C1` [Example 8, (S)—N-ethyl-3-((9-ethyl-2-(((2S,3S)-2-hydroxypentan-3-yl)amino)-9H-purin-6-yl)amino)pyrrolidine-1-sulfonamide], the IC50 in series [1] was more than 30000 nM; in series [2] (EdU assay, two days), 4770 nM; in series [3] (EdU assay, two days), 1580 nM.
Take `CCNS(=O)(=O)N1CC[C@H](Nc2nc(N[C@H](CC)[C@H](C)O)nc3c2ncn3CC)C1` [Example 11, (S)—N-ethyl-3-((9-ethyl-2-(((2S,3R)-2-hydroxypentan-3-yl)amino)-9H-purin-6-yl)amino)pyrrolidine-1-sulfonamide]: the IC50 in series [1] is more than 30000 nM; in series [2] (EdU assay, two days) it was 3300 nM; in series [3] (EdU assay, two days) it was 1400 nM.
For the compound `CCNS(=O)(=O)N1CC[C@H](Nc2nc(N[C@H](CC)C(C)=O)nc3c2ncn3CC)C1` [Example 12, (S)—N-ethyl-3-((9-ethyl-2-(((R)-2-oxopentan-3-yl)amino)-9H-purin-6-yl)amino)pyrrolidine-1-sulfonamide], the IC50 in series [6] is 88 nM; in series [7] it was 7480 nM; in series [8], more than 29700 nM; in series [1], more than 30000 nM; in series [2], 3400 nM; in series [3] it was 1560 nM. In series [5], the solubility at 24 h is 955 µM (≈ 419 µg/mL).
For the compound `CC[C@H](Nc1nc(N[C@H]2CCN(S(=O)(=O)N[C@@H]3CCOC3)C2)c2ncn(CC)c2n1)[C@@H](C)O` [Example 18, (S)-3-((9-ethyl-2-(((2R,3S)-2-hydroxypentan-3-yl)amino)-9H-purin-6-yl)amino)-N—((R)-tetrahydrofuran-3-yl)pyrrolidine-1-sulfonamide], the half-maximal inhibitory concentration (IC50) in series [1] (MCF-7 cells, 2 hours) amounted to 23600 nM; in series [3] (EdU assay, two days), 169 nM. Also, the solubility at 24 h in series [5] came out at 726 µM (≈ 350 µg/mL).
For the compound `CC[C@H](Nc1nc(N[C@H]2CCN(S(=O)(=O)N[C@H]3CCOC3)C2)c2ncn(CC)c2n1)[C@@H](C)O` [Example 22, (S)-3-((9-ethyl-2-(((2R,3S)-2-hydroxypentan-3-yl)amino)-9H-purin-6-yl)amino)-N—((S)-tetrahydrofuran-3-yl)pyrrolidine-1-sulfonamide], the 50% inhibitory concentration (IC50) in series [1] (MCF-7 cells, 2 hours) is more than 30000 nM; in series [2] (EdU assay, two days), 1440 nM; in series [3] (EdU assay, two days) it was 298 nM. The solubility at 24 h in series [5] is more than 1000 µM.
The like results for `CC[C@H](Nc1nc(N[C@H]2CCN(S(=O)(=O)N3CC(F)C3)C2)c2ncn(CC)c2n1)[C@@H](C)O` [Example 24, (2R,3S)-3-((9-ethyl-6-(((S)-1-((3-fluoroazetidin-1-yl)sulfonyl)pyrrolidin-3-yl)amino)-9H-purin-2-yl)amino)pentan-2-ol] were, in that order, more than 30000 nM, 2930 nM, 856 nM and 466 µM (≈ 219 µg/mL).
As for `CC[C@H](Nc1nc(N[C@H]2CCN(S(=O)(=O)NC)C2)c2ncn(CC)c2n1)C(C)=O` [Example 45, (S)-3-((9-ethyl-2-(((S)-2-oxopentan-3-yl)amino)-9H-purin-6-yl)-amino)-N-methylpyrrolidine-1-sulfonamide], the IC50 in series [6] is 39 nM; in series [7] it was 1890 nM; in series [8] it was more than 29700 nM; in series [1] (MCF-7 cells, 2 hours), more than 26700 nM; in series [2] (EdU assay, two days), 944 nM; in series [3] (EdU assay, two days), 359 nM.
